From ChEMBL document CHEMBL1158028, “Triterpene saponins from Eryngium campestre” (J Nat Prod, 2006)
Values after ≈ are worked out from the molar mass of the structure shown.

Assays:
[1] = Cytotoxicity against human HCT 116 cells by MTT assay; format: functional, cell-based
HT-29 = assay: Cytotoxicity against human HT-29 cells by MTT assay; format: functional, cell-based

| Structure (SMILES) | IC50 [1] | IC50 (HT-29) |
| --- | --- | --- |
| CC(C)=CC(=O)O[C@H]1CC(C)(C)C[C@H]2C3=CC[C@@H]4[C@@]5(C)CC[C@H](O[C@@H]6O[C@H](C(=O)O)[C@@H](O[C@H]7O[C@H](C)[C@@H](O)[C@H](O)[C@@H]7O)[C@H](O)[C@H]6O[C@@H]6O[C@H](CO)[C@@H](O)[C@H](O)[C@H]6O)C(C)(C)[C@@H]5CC[C@@]4(C)[C@]3(C)[C@@H](O)[C@@H](O)[C@@]12CO | 40 µg/mL (≈ 37.8 µM) | 40 µg/mL (≈ 37.8 µM) |
| C/C=C(/C)C(=O)O[C@H]1[C@H](O)C(C)(C)C[C@H]2C3=CC[C@@H]4[C@@]5(C)CC[C@H](O[C@@H]6O[C@H](C(=O)O)[C@@H](O[C@@H]7O[C@@H](C)[C@H](O)[C@@H](O)[C@H]7O)[C@H](O)[C@H]6O[C@H]6O[C@@H](CO)[C@H](O)[C@@H](O)[C@@H]6O)C(C)(C)[C@@H]5CC[C@@]4(C)[C@]3(C)[C@@H](O)[C@@H](O)[C@]21CO | > 100 µg/mL | > 100 µg/mL |
| CC(C)=CC(=O)O[C@H]1CC(C)(C)C[C@H]2C3=CC[C@@H]4[C@@]5(C)CC[C@H](O[C@@H]6O[C@H](C(=O)O)[C@@H](O)[C@H](O)[C@H]6O[C@H]6O[C@H](C)[C@@H](O)[C@H](O)[C@@H]6O)C(C)(C)[C@@H]5CC[C@@]4(C)[C@]3(C)[C@@H](O)[C@@H](O)[C@@]12CO | 40 µg/mL (≈ 44.7 µM) | 40 µg/mL (≈ 44.7 µM) |
| C/C=C(/C)C(=O)O[C@H]1[C@H](O)C(C)(C)C[C@H]2C3=CC[C@@H]4[C@@]5(C)CC[C@H](O[C@@H]6O[C@H](C(=O)O)[C@@H](O)[C@H](O)[C@H]6O[C@H]6O[C@H](C)[C@@H](O)[C@H](O)[C@@H]6O)C(C)(C)[C@@H]5CC[C@@]4(C)[C@]3(C)[C@@H](O)[C@@H](O)[C@]21COC(C)=O | > 100 µg/mL | > 100 µg/mL |
| C/C=C(/C)C(=O)O[C@H]1[C@H](OC(C)=O)C(C)(C)C[C@H]2C3=CC[C@@H]4[C@@]5(C)CC[C@H](O[C@@H]6O[C@H](C(=O)O)[C@@H](O)[C@H](O)[C@H]6O[C@H]6O[C@H](C)[C@@H](O)[C@H](O)[C@@H]6O)C(C)(C)[C@@H]5CC[C@@]4(C)[C@]3(C)[C@@H](O)[C@@H](O)[C@]21CO | 40 µg/mL (≈ 42 µM) | 40 µg/mL (≈ 42 µM) |
| CC(=O)OC1[C@H](OC(=O)C=C(C)C)[C@]2(CO)[C@H](O)[C@H](O)[C@]3(C)C(=CC[C@@H]4[C@@]5(C)CC[C@H](O[C@@H]6O[C@H](C(=O)O)[C@@H](O)[C@H](O)[C@H]6O[C@H]6O[C@H](C)[C@@H](O)[C@H](O)[C@@H]6O)C(C)(C)[C@@H]5CC[C@]43C)[C@@H]2CC1(C)C (stereo not given in full) | 40 µg/mL (≈ 42 µM) | 40 µg/mL (≈ 42 µM) |
| C/C=C(/C)C(=O)O[C@H]1[C@H](O)C(C)(C)C[C@H]2C3=CC[C@@H]4[C@@]5(C)CC[C@H](O[C@@H]6O[C@H](C(=O)O)[C@@H](O)[C@H](O)[C@H]6O[C@H]6O[C@H](C)[C@@H](O)[C@H](O)[C@@H]6O)C(C)(C)[C@@H]5CC[C@@]4(C)[C@]3(C)[C@@H](O)[C@@H](O)[C@]21CO | 40 µg/mL (≈ 43.9 µM) | 40 µg/mL (≈ 43.9 µM) |
| CC(=O)O[C@H]1C(=O)[C@@]2(C)[C@H]([C@H](OC(=O)c3ccccc3)[C@]3(O)C[C@H](OC(=O)[C@H](O)[C@@H](NC(=O)c4ccccc4)c4ccccc4)C(C)=C1C3(C)C)[C@]1(OC(C)=O)CO[C@@H]1C[C@@H]2O [PACLITAXEL] | 0.008 µg/mL (≈ 0.00937 µM) |  |
